Assay results from patent US11787764B2, “Heptamethine cyanines for use as fluorescent markers of the biliary and renal systems” (CHILDREN'S NATIONAL MEDICAL CENTER, priority 2018, dated 2023).

Key:
Sprague-Dawley rats = details: rat, in vivo, iv, 90 ug/kg
[1] = Quantum yield measurement
Protocol: Fluorescence traces were recorded on a PTI QuantaMaster steady-state spectrofluorimeter operated by FelixGX 4.2.2 software, with 5 nm excitation and emission slit widths, 0.1 s integration rate, and enabled emission correction.

| excretion into bile / biliary clearance (in words) (Sprague-Dawley rats) | quantum yield [1] [%] | Compound |
| --- | --- | --- |
| excellent biliary clearance | – | CN(CCOC1=C(/C=C/C2=[N+](CCCCS(=O)(=O)[O-])c3ccccc3C2(C)C)CCC/C1=C\C=C1\N(CCCCS(=O)(=O)O)c2ccccc2C1(C)C)C(=O)CCCC(=O)O [FNIR-Ar-H_N-BS] |
| – | 9 | CC1(C)C(/C=C/C=C/C=C/C=C2\N(CCCCS(=O)(=O)O)c3ccc4ccccc4c3C2(C)C)=[N+](CCCCS(=O)(=O)[O-])c2ccc3ccccc3c21 [ICG, indocyanine green] |
| excretes rapidly into bile | – | CC1(C)C(=CC=C2CCCC(C=CC3=[N+](CCCCCC(=O)[O-])c4ccc(S(=O)(=O)[O-])cc4C3(C)C)=C2Oc2ccc(S(=O)(=O)[O-])cc2)N(CCCCS(=O)(=O)[O-])c2ccc(S(=O)(=O)[O-])cc21.[Na+].[Na+].[Na+].[Na+] [IRDye® 800CW] |
